Measurements from ChEMBL document CHEMBL3885861, “Open TG-GATES”.

Species: Rattus norvegicus
Experiment: Open TG-GATES - Regimen: Single
Type: toxicity, organism-based, Sprague-Dawley
Design: regimen Single, gender Male, age 6 weeks
Conditions: in vivo, iv, route intravenous injection; for KIDNEY_L / KIDNEY_R / KIDNEY_TOTAL: tissue Kidney; for LIVER: tissue Liver
[1] = 1 mg/kg, 3 h, tissue Blood, dose level Low
[2] = 1 mg/kg, 3 h, tissue Plasma, dose level Low
[3] = 1 mg/kg, 6 h, tissue Blood, dose level Low
[4] = 1 mg/kg, 6 h, tissue Plasma, dose level Low
[5] = 1 mg/kg, 9 h, tissue Blood, dose level Low
[6] = 1 mg/kg, 9 h, tissue Plasma, dose level Low
[7] = 1 mg/kg, 24 h, tissue Blood, dose level Low
[8] = 1 mg/kg, 24 h, tissue Plasma, dose level Low

Molecule `COc1cccc2c1C(=O)c1c(O)c3c(c(O)c1C2=O)C[C@@](O)(C(=O)CO)C[C@@H]3O[C@H]1C[C@H](N)[C@H](O)[C@H](C)O1` [DOXORUBICIN] has a TERMINAL_BW (1 mg/kg, 3 h, dose level Low) of 214.5 g, a Bas [1] of 0% and an Eos [1] of 1%. The Fbg [1] was 272 mg/dL, the Hb [1] was 13.4 g/dL and the Ht [1] was 38.5%. The Lym [1] was 77%, the MCH [1] was 21.8 pg and the MCHC [1] was 34.8%. The MCV [1] was 62.7 fL, the Mono [1] was 3% and the PT [1] was 16.4 s. The Plat [1] was 126.6 x10_4/uL, the RBC [1] was 614.2 x10_4/ul and the Ret [1] was 6.6%. For the same molecule, the KIDNEY_L (1 mg/kg, 3 h, dose level Low) was 0.9 g, the KIDNEY_R (1 mg/kg, 3 h, dose level Low) was 0.9 g and the KIDNEY_TOTAL (1 mg/kg, 3 h, dose level Low) was 1.9 g. The LIVER (1 mg/kg, 3 h, dose level Low) was 9.4 g, the ALP [2] was 1599.2 IU/L and the ALT [2] was 44 IU/L. It also gave an AST [2] of 86.6 IU/L, a CRE [2] of 0.2 mg/dL and a DBIL [2] of 0.002 mg/dL. For the same molecule, the GLC [2] was 185.4 mg/dL, the K [2] was 4.2 meq/L and the Na [2] was 142.4 meq/L. The RALB [2] was 2.9 g/dL, the TBIL [2] was 0.018 mg/dL and the TC [2] was 67.8 mg/dL. For the same molecule, the TG [2] was 81 mg/dL, the TP [2] was 5.1 g/dL and the gamma-GTP [2] was 1.6 IU/L. The TERMINAL_BW (1 mg/kg, 6 h, dose level Low) was 211.5 g, the Bas [3] was 0% and the Eos [3] was 0.4%. The Fbg [3] was 292.8 mg/dL, the Hb [3] was 13 g/dL and the Ht [3] was 38.2%. For the same molecule, the Lym [3] was 79.4%, the MCH [3] was 21.9 pg and the MCHC [3] was 34.2%. It also gave an MCV [3] of 64 fL, a Mono [3] of 3.4% and a PT [3] of 15.9 s. The Plat [3] was 117.6 x10_4/uL, the RBC [3] was 598.8 x10_4/ul and the Ret [3] was 7%. It also gave a KIDNEY_L (1 mg/kg, 6 h, dose level Low) of 1 g, a KIDNEY_R (1 mg/kg, 6 h, dose level Low) of 1 g and a KIDNEY_TOTAL (1 mg/kg, 6 h, dose level Low) of 1.9 g. It also gave an LIVER (1 mg/kg, 6 h, dose level Low) of 8.9 g, an ALP [4] of 1586.4 IU/L and an ALT [4] of 43.4 IU/L. It also gave an AST [4] of 78.8 IU/L, a CRE [4] of 0.1 mg/dL and a DBIL [4] of 0 mg/dL. For the same molecule, the GLC [4] was 172 mg/dL, the K [4] was 4.2 meq/L and the Na [4] was 140.6 meq/L. The RALB [4] was 2.9 g/dL, the TBIL [4] was 0.022 mg/dL and the TC [4] was 71.8 mg/dL. For the same molecule, the TG [4] was 62.6 mg/dL, the TP [4] was 5.2 g/dL and the gamma-GTP [4] was 1.6 IU/L. It also gave a TERMINAL_BW (1 mg/kg, 9 h, dose level Low) of 206.4 g, a Bas [5] of 0% and an Eos [5] of 1%. For the same molecule, the Fbg [5] was 286.2 mg/dL, the Ht [5] was 38.8% and the Lym [5] was 74.8%. For the same molecule, the MCH [5] was 21.3 pg, the MCHC [5] was 34.3% and the MCV [5] was 62.3 fL. For the same molecule, the Mono [5] was 3%, the Neu [5] was 20.4% and the PT [5] was 16.4 s. The Plat [5] was 115.3 x10_4/uL, the RBC [5] was 624 x10_4/ul and the Ret [5] was 6.7%. It also gave a KIDNEY_L (1 mg/kg, 9 h, dose level Low) of 0.9 g, a KIDNEY_R (1 mg/kg, 9 h, dose level Low) of 0.9 g and a KIDNEY_TOTAL (1 mg/kg, 9 h, dose level Low) of 1.8 g. It also gave an LIVER (1 mg/kg, 9 h, dose level Low) of 8.1 g, an ALP [6] of 1211 IU/L and an AST [6] of 73.4 IU/L. The CRE [6] was 0.1 mg/dL, the DBIL [6] was 0 mg/dL and the GLC [6] was 180 mg/dL. The K [6] was 4.2 meq/L, the LDH [6] was 136.6 IU/L and the Na [6] was 140.2 meq/L. The RALB [6] was 3 g/dL, the TBIL [6] was 0.02 mg/dL and the TC [6] was 67.8 mg/dL. It also gave a TG [6] of 52.6 mg/dL, a TP [6] of 5.3 g/dL and a gamma-GTP [6] of 1.2 IU/L. The TERMINAL_BW (1 mg/kg, 24 h, dose level Low) was 218.4 g, the Bas [7] was 0% and the Eos [7] was 0.8%. The Fbg [7] was 307.6 mg/dL, the Ht [7] was 37.2% and the Lym [7] was 83.2%. The MCH [7] was 21.6 pg, the MCHC [7] was 35.8% and the MCV [7] was 60.4 fL. It also gave a Mono [7] of 3.4%, a PT [7] of 16.7 s and a Plat [7] of 116 x10_4/uL. The RBC [7] was 617.4 x10_4/ul, the Ret [7] was 6.2% and the KIDNEY_L (1 mg/kg, 24 h, dose level Low) was 0.9 g. It also gave a KIDNEY_R (1 mg/kg, 24 h, dose level Low) of 1 g, a KIDNEY_TOTAL (1 mg/kg, 24 h, dose level Low) of 1.9 g and an ALP [8] of 1436.4 IU/L. It also gave an AST [8] of 68.2 IU/L, a CRE [8] of 0.2 mg/dL and a DBIL [8] of 0.002 mg/dL. The GLC [8] was 191.8 mg/dL, the K [8] was 4.3 meq/L and the Na [8] was 142.4 meq/L. It also gave an RALB [8] of 3 g/dL, a TBIL [8] of 0.024 mg/dL and a TC [8] of 75.2 mg/dL. The TG [8] was 102.4 mg/dL, the TP [8] was 5.6 g/dL and the gamma-GTP [8] was 1.4 IU/L. It also gave a TERMINAL_BW (3 mg/kg, 3 h, dose level Middle) of 212.4 g and a Bas (3 mg/kg, 3 h, tissue Blood, dose level Middle) of 0%.
